Where two headings read alike, the source gives them in different places.
Columns and labels:
[1] = system: rats; experiment: Acute toxicity test in rats; type: in vivo
Experimental: (§1) The acute toxicity tests of sodium N-acetylneuraminate to mice, rats and guinea pigs given by oral administration or subcutaneous injection, intraperitoneal injection, intravenous injection or inhalation, were conducted as follows:
(§2) 20 w/v % (solution in distilled water)
In the inhalation, the subjects were exposed to a spray of the compound o

[2] = system: nasal mucous membrane of rabbits; experiment: Subacute disappearance of cilia from nasal mucous membrane of rabbits and degeneration of the epithelium induced by exposure to sulfur dioxide; type: in vivo, Male New Zealand White rabbits; on disappearance of cilia: key: -: Unchanged; +: Slight; ++: Moderate change; +++: Severe
Experimental: Effects on subacute disappearance of cilia from nasal mucous membrane of rabbits and degeneration of the epithelium thereof induced by exposure to sulfur dioxide:
Male New Zealand White rabbits weighing 1.8 to 2.2 kg were used.
(§3) Sodium N-acetylneuraminate (a product of MECT Corporation) was used.
The rabbits were exposed to sulfur dioxide by means of a sulfur dioxide-exposing apparatus for 2 hours a day continuously for 5 weeks. The sulfur dioxide concentrations were 70 to 150 ppm in the first and second weeks and 200 to 300 ppm in the third to fifth weeks. After the third week, the inhalation of the material or physiological saline by means of an ultrasonic nebulizer (TUR-3200: a product of Nippon Koden Co., Ltd.) was made immediately before the exposure to sulfur dioxide.
Group I: inhalation of 25 mg/kg of sodium N-acetylneuraminate for 2 minutes.
Group II: inhalation of 1 ml of physiological saline for 2 minutes.
Each group comprised six rabbits.
Five weeks after completion of the exposure to sulfur dioxide, the rabbits were killed by venesection and the intranarial changes of them were examined by a microscopic observation and the results were compared with one another.

[3] = system: mice; experiment: Acute toxicity test in mice; type: in vivo; details: male, 20160 min
Experimental: as §1, §2

[4] = Stability versus pH; type: physicochemical
[5] = system: nasal mucous membranes of rats; experiment: Acute disappearance of cilia from nasal mucous membranes of rats and degeneration of the epithelium induced by exposure to sulfur dioxide; type: in vivo, Male Wistar rats; details: for Disappearance of cilia / Disappearance of epithelium / Monolayer squamous metaplasia of epithelium: per animal; on Disappearance of epithelium: key: -: Unchanged; +: Slight; ++: Moderate change; +++: Severe; on Monolayer squamous metaplasia of epithelium: key: -: Unchanged; +: Slight; ++: Moderate change; +++: Severe; on disappearance of cilia: key: -: Unchanged; +: Slight; ++: Moderate change; +++: Severe
Experimental: The effects of test samples on acute disappearance of cilia from nasal mucous membranes of rats and the degeneration of the epithelium induced by exposure to sulfur dioxide:
Male Wistar rats weighing 180 to 200 g were used.
as §3
The rats were exposed to 400 ppm of sulfur dioxide for 4 hours. 30 minutes after the exposure, the rats were caused to inhale the test sample or physiological saline as follows:
Group I: inhalation of 300 mg/m^3 of sodium N-acetylneuraminate for 1 hour.
Group II: inhalation of 100 mg/m^3 of sodium N-acetylneuraminate for 1 hour.
Group III: inhalation of 20 ml/m^3 of the physiological saline for 1 hour.
Each group comprised 5 rats.
24 hours after the inhalation of the materials or physiological saline, the rats were killed and their intranarial changes were examined by a microscopic observation and the results were compared with one another.

[6] = system: mice; experiment: Simple acute toxicity test by intravenous injection in mice; type: in vivo, Male ddy mice; details: for Final death rate / Number of death with the elapse of time: 3 mice
Experimental: Simple acute toxicity test:
Simple acute toxicity tests of the materials were conducted by intraveous injections for the mice as follows:
Lithium, potassium, barium and magnesium N-acetylneuraminates (products of MECT Corporation) were used.
Weight of the animal in the initial stage of the test: 17.7 to 21.1 g
Number of mice for each level: 3
(3) Room temperature: 23±1° C., humidity: 55±7%
(4) Route of administration: intravenous injection
The material was dissolved in the physiological saline. The concentration of the dose solution was adjusted so that 0.2 ml of the dose solution was administered per 20 g of the body weight of the mice. The solution was given to a tail of each mouse by the intravenous injection. The dose was 500, 1000 or 2000 mg/kg.
The general symptoms and death were observed from immediately after the administration to seven days after the administration.

[7] = Group I: inhalation 25 mg/kg for 2 minutes, per animal
[8] = Group I: inhalation 300 mg/m^3 for 1 hour
[9] = Group II: inhalation 100 mg/m^3 for 1 hour

Structure (SMILES): CC(=O)N[C@H]1[C@H]([C@H](O)[C@H](O)CO)OC(O)(C(=O)[O-])C[C@@H]1O.[Na+] (stereo partly drawn)
- LD50 [1]: > 5,000 mg/kg
- LD50 ([1]; rats, female, inhalation, spray for one hour): > 4,000 mg/m^3
- LD50 ([1]; rats, male, inhalation, spray for one hour): > 4,000 mg/m^3
- LD50 ([1]; rats, male, intraperitoneal, 20160 min): > 5,000 mg/kg
- LD50 ([1]; rats, male, intravenous, 20160 min): > 5,000 mg/kg
- LD50 ([1]; rats, male, oral, 20160 min): > 5,000 mg/kg
- Squamous metaplasia of epithelium, comparison of groups ([2]; Group I (25 mg/kg) versus Group II (physiological saline)): more serious in Group II than in Group I
- Disappearance of cilia [2, 7]: - and + and ++
- Squamous metaplasia of epithelium [2, 7]: - and + and ++
- Inhibition of subacute disappearance of cilia and squamous metaplasia of epithelium / repair of cells and tissues of nasal mucous membranes ([2]; sulfur dioxide exposure, 25 mg/kg inhalation): remarkable effect of inhibiting
- LD50 ([3]; intraperitoneal): > 5,000 mg/kg
- LD50 ([3]; intravenous): > 5,000 mg/kg
- LD50 ([3]; oral): > 5,000 mg/kg
- LD50 ([3]; subcutaneous): > 5,000 mg/kg
- pH range of greatest stability [4]: 5.5 to 6.0
- Disappearance of cilia [5, 8]: ++ and +
- Disappearance of epithelium [5, 8]: -
- Monolayer squamous metaplasia of epithelium [5, 8]: -
- Disappearance of cilia [5, 9]: + and - and ++
- Disappearance of epithelium [5, 9]: -
- Monolayer squamous metaplasia of epithelium [5, 9]: -
- Intranarial changes ([5]; Groups I and II (300 and 100 mg/m^3), compared with Group III (physiological saline)): only the disappearance of cilia was observed and the degree of the disappearance was lower than that of Group III
- Inhibition of acute disappearance of cilia, monolayer squamous metaplasia and disappearance of epithelium / degeneration of nasal mucous membranes ([5]; sulfur dioxide exposure, rats): remarkable effect of inhibiting

Structure (SMILES): CC(=O)N[C@H]1[C@H]([C@H](O)[C@H](O)CO)OC(O)(C(=O)[O-])C[C@@H]1O.[K+] (stereo partly drawn) [Potassium N-acetylneuraminate]
- Final death rate ([6]; 500 mg/kg i.v.): 0/3
- Number of death with the elapse of time ([6]; 500 mg/kg i.v., 1 hr): 0
- Number of death with the elapse of time ([6]; 500 mg/kg i.v., 3 hrs): 0
- Number of death with the elapse of time ([6]; 500 mg/kg i.v., 6 hrs): 0
- Number of death with the elapse of time ([6]; 500 mg/kg i.v., 24 hrs): 0
- Number of death with the elapse of time ([6]; 500 mg/kg i.v., 2 days): 0
- Number of death with the elapse of time ([6]; 500 mg/kg i.v., 3 days): 0
- Number of death with the elapse of time ([6]; 500 mg/kg i.v., 4 days): 0
- Number of death with the elapse of time ([6]; 500 mg/kg i.v., 5 days): 0
- Number of death with the elapse of time ([6]; 500 mg/kg i.v., 6 days): 0
- Number of death with the elapse of time ([6]; 500 mg/kg i.v., 7 days): 0
- Final death rate ([6]; 1000 mg/kg i.v.): 3/3
- Number of death with the elapse of time ([6]; 1000 mg/kg i.v., 1 hr): 3
- Number of death with the elapse of time ([6]; 1000 mg/kg i.v., 3 hrs): 0
- Number of death with the elapse of time ([6]; 1000 mg/kg i.v., 6 hrs): 0
- Number of death with the elapse of time ([6]; 1000 mg/kg i.v., 24 hrs): 0
- Number of death with the elapse of time ([6]; 1000 mg/kg i.v., 2 days): 0
- Number of death with the elapse of time ([6]; 1000 mg/kg i.v., 3 days): 0
- Number of death with the elapse of time ([6]; 1000 mg/kg i.v., 4 days): 0
- Number of death with the elapse of time ([6]; 1000 mg/kg i.v., 5 days): 0
- Number of death with the elapse of time ([6]; 1000 mg/kg i.v., 6 days): 0
- Number of death with the elapse of time ([6]; 1000 mg/kg i.v., 7 days): 0
- Death ([6]; 1000 mg/kg or 2000 mg/kg i.v.): all of the three mice died
- Final death rate ([6]; 2000 mg/kg i.v.): 3/3
- Number of death with the elapse of time ([6]; 2000 mg/kg i.v., 1 hr): 3
- Number of death with the elapse of time ([6]; 2000 mg/kg i.v., 3 hrs): 0
- Number of death with the elapse of time ([6]; 2000 mg/kg i.v., 6 hrs): 0
- Number of death with the elapse of time ([6]; 2000 mg/kg i.v., 24 hrs): 0
- Number of death with the elapse of time ([6]; 2000 mg/kg i.v., 2 days): 0
- Number of death with the elapse of time ([6]; 2000 mg/kg i.v., 3 days): 0
- Number of death with the elapse of time ([6]; 2000 mg/kg i.v., 4 days): 0
- Number of death with the elapse of time ([6]; 2000 mg/kg i.v., 5 days): 0
- Number of death with the elapse of time ([6]; 2000 mg/kg i.v., 6 days): 0
- Number of death with the elapse of time ([6]; 2000 mg/kg i.v., 7 days): 0

Structure (SMILES): CC(=O)N[C@H]1[C@H]([C@H](O)[C@H](O)CO)OC(O)(C(=O)[O-])C[C@@H]1O.[Li+] (stereo partly drawn) [Lithium N-acetylneuraminate]
- Final death rate ([6]; 500 mg/kg i.v.): 0/3
- Number of death with the elapse of time ([6]; 500 mg/kg i.v., 1 hr): 0
- Number of death with the elapse of time ([6]; 500 mg/kg i.v., 3 hrs): 0
- Number of death with the elapse of time ([6]; 500 mg/kg i.v., 6 hrs): 0
- Number of death with the elapse of time ([6]; 500 mg/kg i.v., 24 hrs): 0
- Number of death with the elapse of time ([6]; 500 mg/kg i.v., 2 days): 0
- Number of death with the elapse of time ([6]; 500 mg/kg i.v., 3 days): 0
- Number of death with the elapse of time ([6]; 500 mg/kg i.v., 4 days): 0
- Number of death with the elapse of time ([6]; 500 mg/kg i.v., 5 days): 0
- Number of death with the elapse of time ([6]; 500 mg/kg i.v., 6 days): 0
- Number of death with the elapse of time ([6]; 500 mg/kg i.v., 7 days): 0
- Final death rate ([6]; 1000 mg/kg i.v.): 0/3
- Number of death with the elapse of time ([6]; 1000 mg/kg i.v., 1 hr): 0
- Number of death with the elapse of time ([6]; 1000 mg/kg i.v., 3 hrs): 0
- Number of death with the elapse of time ([6]; 1000 mg/kg i.v., 6 hrs): 0
- Number of death with the elapse of time ([6]; 1000 mg/kg i.v., 24 hrs): 0
- Number of death with the elapse of time ([6]; 1000 mg/kg i.v., 2 days): 0
- Number of death with the elapse of time ([6]; 1000 mg/kg i.v., 3 days): 0
- Number of death with the elapse of time ([6]; 1000 mg/kg i.v., 4 days): 0
- Number of death with the elapse of time ([6]; 1000 mg/kg i.v., 5 days): 0
- Number of death with the elapse of time ([6]; 1000 mg/kg i.v., 6 days): 0
- Number of death with the elapse of time ([6]; 1000 mg/kg i.v., 7 days): 0
- Final death rate ([6]; 2000 mg/kg i.v.): 0/3
- Number of death with the elapse of time ([6]; 2000 mg/kg i.v., 1 hr): 0
- Number of death with the elapse of time ([6]; 2000 mg/kg i.v., 3 hrs): 0
- Number of death with the elapse of time ([6]; 2000 mg/kg i.v., 6 hrs): 0
- Number of death with the elapse of time ([6]; 2000 mg/kg i.v., 24 hrs): 0
- Number of death with the elapse of time ([6]; 2000 mg/kg i.v., 2 days): 0
- Number of death with the elapse of time ([6]; 2000 mg/kg i.v., 3 days): 0
- Number of death with the elapse of time ([6]; 2000 mg/kg i.v., 4 days): 0
- Number of death with the elapse of time ([6]; 2000 mg/kg i.v., 5 days): 0
- Number of death with the elapse of time ([6]; 2000 mg/kg i.v., 6 days): 0
- Number of death with the elapse of time ([6]; 2000 mg/kg i.v., 7 days): 0

Source: patent publication US5015631A, “Repairing agent for cells and tissues” (MECT Corporation, priority 1987, dated 1991)
